≈ marks a conversion by molar mass, not a printed value.
What was measured:
[1] = tested on: Mycobacterium tuberculosis; assay: Antimycobacterial activity against Mycobacterium tuberculosis 90-221387; assay type: functional
Vero = assay: Cytotoxicity against african green monkey Vero cells; assay type: cell-based; conditions: Chlorocebus sabaeus
[2] = tested on: Mycobacterium tuberculosis; assay: Antimycobacterial activity against Mycobacterium tuberculosis H37Ra; assay type: functional
[3] = Selectivity index, ratio of IC50 for african green monkey Vero cells to MIC for Mycobacterium tuberculosis H37Ra; assay type: functional
[4] = tested on: Mycobacterium tuberculosis; assay: Antimycobacterial activity against Mycobacterium tuberculosis H37Rv; assay type: functional; conditions: Mycobacterium tuberculosis, H37Rv; read-out: MIC
[5] = tested on: Mycobacterium tuberculosis; assay: Antimycobacterial activity against Mycobacterium tuberculosis Erdman by microplate alamar blue assay; assay type: functional
[6] = tested on: Mycobacterium tuberculosis; assay: Antimycobacterial activity against Mycobacterium tuberculosis H242; assay type: functional
[7] = tested on: Mycobacterium tuberculosis; assay: Antimycobacterial activity against Mycobacterium tuberculosis H37Rv ATCC 27294; assay type: functional
[8] = tested on: Mycobacterium tuberculosis; assay: Antimycobacterial activity against Mycobacterium tuberculosis isolate CIBIN/UMF 15:19; assay type: functional
[9] = Selectivity index, ratio of IC50 for african green monkey Vero cells to MIC for Mycobacterium tuberculosis H37Rv; assay type: functional
[10] = tested on: Mycobacterium tuberculosis; assay: Antimycobacterial activity against Mycobacterium tuberculosis at 128 ug/mL; assay type: functional; conditions: read-out: GI
[11] = tested on: Mycobacterium tuberculosis; assay: Antimycobacterial activity against Mycobacterium tuberculosis H37Rv by liquid microdilution method; assay type: functional
[12] = Inhibition of Mycobacterium tuberculosis RNA polymerase
[13] = tested on: Mycobacterium tuberculosis; assay: Growth inhibition of Mycobacterium tuberculosis H37Rv at 6.25 ug/ml; assay type: functional; conditions: read-out: GI
[14] = tested on: Mycobacterium tuberculosis; assay: Antimycobacterial activity against Mycobacterium tuberculosis H37Rv under anaerobic condition; assay type: functional
[15] = tested on: Mycobacterium tuberculosis; assay: Antimycobacterial activity against Mycobacterium tuberculosis H37Rv under aerobic condition; assay type: functional
[16] = tested on: Mycobacterium tuberculosis; assay: Antimycobacterial activity against Mycobacterium tuberculosis isolate no. 246; assay type: functional
[17] = target: T1, 3-oxoacyl-[acyl-carrier-protein] synthase 1 (Mycobacterium tuberculosis, UniProt P9WQD9); assay: Inhibition of Mycobacterium tuberculosis H37Rv Fab1
T1 sequence (P9WQD9 whole entry): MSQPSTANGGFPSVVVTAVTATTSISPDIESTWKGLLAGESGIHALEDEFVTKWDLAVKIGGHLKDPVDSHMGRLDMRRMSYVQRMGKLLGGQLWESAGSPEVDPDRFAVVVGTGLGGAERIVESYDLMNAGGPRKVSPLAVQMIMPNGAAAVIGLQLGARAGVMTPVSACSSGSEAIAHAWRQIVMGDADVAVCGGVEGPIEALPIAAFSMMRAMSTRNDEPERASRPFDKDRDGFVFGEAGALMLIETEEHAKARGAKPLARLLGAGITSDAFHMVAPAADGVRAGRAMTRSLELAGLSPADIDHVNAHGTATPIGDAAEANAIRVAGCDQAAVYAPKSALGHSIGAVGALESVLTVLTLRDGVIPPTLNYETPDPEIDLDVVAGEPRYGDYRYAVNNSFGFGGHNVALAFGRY

[18] = Selectivity index, ratio of CC50 for lymphocytes to MIC for Mycobacterium tuberculosis H37Rv isolate WC 64/02; assay type: functional
[19] = tested on: Mycobacterium tuberculosis; assay: Antimycobacterial activity against Mycobacterium tuberculosis H37Rv isolate WC 51/02; assay type: functional
[20] = tested on: Mycobacterium tuberculosis; assay: Antimycobacterial activity against Mycobacterium tuberculosis H37Rv isolate WC 64/02; assay type: functional
[21] = Selectivity index, ratio of CC50 for lymphocytes to MIC for Mycobacterium tuberculosis H37Rv isolate WC 51/02; assay type: functional

COc1cc([C@H]2O[C@@]3(c4cc(OC)c5c(c4)OCO5)O[C@@]3(C)[C@@H]2C)cc(OC)c1OC
MIC [1]: 30 µg/mL (≈ 69.7 µM)

COc1cc([C@H]2O[C@@]3(c4cc(OC)c(OC)c(OC)c4)O[C@@]3(C)[C@@H]2C)cc(OC)c1OC
MIC [1]: 40 µg/mL (≈ 89.6 µM)

COC1=CC(=O)c2c(cc(OC)c(C(C)OC(C)=O)c2O)C1=O (centres undefined)
IC50 (Vero): 0.33 µg/mL | MIC [2]: 0.39 µg/mL | Selectivity Index [3]: <1

C=CC(O)C#CC#CC(O)/C=C\CCCCCCCCOC(C)=O (centres undefined)
MIC [4]: 25.3 µg/mL | MIC [5]: 1.4 µg/mL (≈ 4.21 µM)

CCCCCCCC/C=C\CCCCCCCCCCCCCCCC[C@@H](O)C(=O)N[C@@H](CO[C@@H]1O[C@H](CO)[C@H](O)[C@H](O)[C@H]1O)[C@H](O)[C@H](O)CCC/C=C\CCCCCCCCC
MIC [4]: 40 µg/mL | MIC [6]: 40 µg/mL (≈ 44.5 µM)

CCCOC(=O)[C@]12CC[C@@]3(C)C[C@H]4O[C@@]4(C)[C@H]4O[C@H]4[C@H]3[C@@H]1CC[C@@H]2C(C)C
MIC [7]: 6.25 µg/mL (≈ 16.6 µM) | MIC [8]: 6.25 µg/mL (≈ 16.6 µM)

COc1ccc(C(=O)OC2=C(C(C)C)C(=O)C3=C(C2=O)[C@@]2(C)CCCC(C)(C)[C@@H]2[C@H](O)[C@H]3OC(C)=O)cc1
MIC [4]: 3.12 µg/mL | IC50 (Vero): 2.58 µg/mL

CC(=O)OC[C@@]12CC[C@]3(C)[C@@H](C(C)C)CC[C@H]3[C@@]13C[C@H]3[C@](C)(O)CC2
MIC [7]: 12.5 µg/mL (≈ 35.9 µM) | MIC [8]: 12.5 µg/mL (≈ 35.9 µM)

CCCOC(=O)[C@]12CC[C@@]3(C)CC[C@@](C)(O)C=C[C@H]3[C@@H]1CC[C@@H]2C(C)C
MIC [7]: 6.25 µg/mL (≈ 17.2 µM) | MIC [8]: 6.25 µg/mL (≈ 17.2 µM)

O=C1c2cccnc2-c2nccc3c2c1nc1ccccc13 [ASCIDIDEMIN]
MIC [4]: 0.35 µM | Selectivity Index [9]: <1 | IC50 (Vero): 0.14 µM

CC(=O)O[C@H]1C[C@]2(C)[C@@H](C(C)C)CC[C@H]2[C@]23C[C@H]2[C@](C)(O)CC[C@]13C [AZORELLANOL]
MIC [7]: 12.5 µg/mL (≈ 35.9 µM) | MIC [8]: 12.5 µg/mL (≈ 35.9 µM)

CC(C)[C@H]1CC[C@@H]2[C@]1(C)CC(=O)[C@@]1(C)CC[C@@](C)(O)[C@@H]3C[C@@]231 [AZORELLANONE]
MIC [7]: 12.5 µg/mL (≈ 41.1 µM) | MIC [8]: 12.5 µg/mL (≈ 41.1 µM)

COc1cc([C@H]2O[C@@H](c3cc(OC)c4c(c3)OCO4)[C@@H](C)[C@@H]2C)cc(OC)c1OC [BEILSCHMIN A]
MIC [1]: 2.5 µg/mL (≈ 6 µM)

COc1cc([C@H]2O[C@@H](c3cc(OC)c(OC)c(OC)c3)[C@@H](C)[C@@H]2C)cc(OC)c1OC [BEILSCHMIN B]
MIC [1]: 7.5 µg/mL (≈ 17.3 µM)

COc1cc([C@H]2O[C@@]3(c4cc(OC)c5c(c4)OCO5)O[C@@]3(C)[C@@H]2C)cc2c1OCO2 [BEILSCHMIN D]
MIC [1]: 50 µg/mL (≈ 121 µM)

C=C(C)[C@H]1CC[C@@H]2C(=O)O[C@H]3[C@@H]2O[C@@]2(O[C@@H]1C(=O)[C@@]1(C)O[C@@H]21)[C@@H]3C(=C)C [BIPINNAPTEROLIDE B]
inhibition of growth at 128 µg/mL [10]: 66%

CC[C@H](C)[C@@H](NC(=O)[C@@H](CCC(=O)O)NC(=O)[C@H](Cc1cnc[nH]1)NC(=O)[C@H](CC(C)C)NC(=O)[C@H](N)Cc1ccccc1)C(=O)N[C@H]1CCCCNC1=O [CALPINACTAM]
MIC [11]: 12.5 µg/mL (≈ 16.3 µM)

C=C(C)[C@@H]1CCC2=C[C@@H](OC2=O)C2=C(C)C[C@](O)(C2=O)[C@H](C)[C@@H](O)C1=O [CORALLOLIDE B]
inhibition of growth at 128 µg/mL [10]: 95%

C/C=C/C/C=C(\C)C(O)CC/C(C)=C/C=C(\C)C(=O)c1c(O)cc([C@H](C)CC/C=C/NC(=O)OC)oc1=O (some centres undefined) [CORALLOPYRONIN A]
IC50 [12]: 4 µM

C[C@@H]1CC[C@@H]2[C@@H](C)C[C@@H](C(=O)/C=C\O)[C@]2(O)C1=O [ELISABETHIN H]
inhibition of growth at 6.25 µg/mL [13]: 51%

CC(C)[C@@H](C)/C=C/[C@@H](C)[C@H]1CC[C@@H]2[C@]1(C)CC[C@H]1[C@]23C=C[C@]2(C[C@@H](O)CC[C@]12C)OO3 [ERGOSTEROL PEROXIDE]
MIC [4]: 3.5 µM | Selectivity Index [9]: >57

C#C[C@@]12O[C@]1(C=O)[C@]1(C)CC[C@H]3C(C)(C)CCC[C@]3(C)[C@H]1CC2=O [ESCOBARINE A]
MIC [7]: 25 µg/mL (≈ 76.1 µM) | MIC [8]: 12.5 µg/mL (≈ 38.1 µM)

C#C[C@@]12O[C@]1(CO)[C@]1(C)CC[C@H]3C(C)(C)CCC[C@]3(C)[C@H]1CC2=O [ESCOBARINE B]
MIC [7]: 50 µg/mL (≈ 151 µM) | MIC [8]: 50 µg/mL (≈ 151 µM)

CC[C@@H](CO)NCCN[C@@H](CC)CO [ETHAMBUTOL]
MIC [1]: 6.2 µg/mL (≈ 30.3 µM)

CCCC/C=C/C#CC#CCCCCCCCC(=O)O [EXOCARPIC ACID]
MIC [14]: 87 µg/mL (≈ 317 µM) | MIC [15]: 20 µg/mL (≈ 72.9 µM) | MIC [2]: 20 µg/mL

C=C[C@@]1(C)[C@H](Cl)C[C@@H]2C(C)(C)c3cccc4[nH]c5c(c34)[C@@]2(O)[C@]1(C#N)[C@@]1(CO1)C5(C)C [FISCHAMBIGUINE B]
MIC [4]: 2 µM | Selectivity Index [9]: 64 | IC50 (Vero): 128 µM

CCCCCC(CC(=O)N1N=CCCC1C(=O)N[C@H]1COC(=O)[C@H]2CCCNN2C(=O)[C@H](C)NC(=O)[C@@H](CC(C)C)NC1=O)C(=O)O (some centres undefined) [LYDIAMYCIN A]
MIC [4]: 12.5 µg/mL | MIC [16]: 25 µg/mL (≈ 37.7 µM)

CC(C)[C@H]1CC[C@H]2[C@@H]3C=C[C@](C)(O)CC[C@]3(C)CC[C@]12CO [MULINOL]
MIC [7]: 12.5 µg/mL (≈ 40.8 µM) | MIC [8]: 12.5 µg/mL (≈ 40.8 µM)

CCC/C(C)=C/C=C(\C)C(=O)c1c(O)cc([C@H](C)CC/C=C/NC(=O)OC)oc1=O [MYXOPORIN A]
IC50 [12]: 1 µM

CC1COc2c(N3CCN(C)CC3)c(F)cc3c(=O)c(C(=O)O)cn1c23 (centres undefined) [OFLOXACIN]
MIC [7]: 0.125 µg/mL (≈ 0.346 µM) | MIC [8]: 0.125 µg/mL (≈ 0.346 µM)

C=C(CC[C@@H](C)[C@H]1CC[C@H]2[C@@H]3C(C=O)=C4C[C@@H](O)CC[C@]4(C)[C@H]3CC[C@]12C)C(C)C [PARGUESTEROL A]
MIC [4]: 7.8 µg/mL | Selectivity Index [9]: <7 | IC50 (Vero): 52 µg/mL

C=C(CC[C@@H](C)[C@H]1CC[C@H]2[C@@H]3C(C=O)[C@]4(O)C[C@@H](O)CC[C@]4(C)[C@H]3CC[C@]12C)C(C)C (some centres undefined) [PARGUESTEROL B]
MIC [4]: 11.2 µg/mL | Selectivity Index [9]: <7 | IC50 (Vero): 52 µg/mL

CCCCCCCc1cc(O)c(CCCCCC)c(=O)o1 [PSEUDOPYRONINES B]
MIC [4]: 0.78 µg/mL | IC50 [17]: 3.8 µM

Cc1cc(O)c2c(c1)C(=O)C=CC2=O [RAMENTACEONE]
Selectivity Index [18]: <8 | MIC [19]: 0.5 µg/mL (≈ 2.66 µM) | MIC [20]: 0.5 µg/mL (≈ 2.66 µM) | Selectivity Index [21]: <8

Cc1cc(O)cc2c1C[C@@H]1C[C@@H](O)[C@]3(C)Oc4cc(O)cc(C)c4C[C@@H]3CC(C)(C)/C=C/C[C@@]1(C)C2 [RAMIFERIN]
IC50 (Vero): 9.7 µM | MIC [2]: 12.7 µM | Selectivity Index [3]: 0.7

C/C(=C\Cc1ccccc1)CC[C@@]1(O)C[C@H]2C[C@@H](C/C(C)=C/C/C=C/C/C(CC(=O)O)=C\C(=O)O2)O1 [RIPOSTATIN A]
IC50 [12]: 0.8 µM

CC(C)=CCC/C(C)=C/CC/C(C)=C/CC/C=C(\C)CC/C=C(\C)CCC=C(C)C [SQUALENE]
MIC [1]: 28 µg/mL (≈ 68.2 µM)
